This is an account of results in paper PMC8868508, “Kassporin-KS1: A Novel Pentadecapeptide from the Skin Secretion of Kassina senegalensis: Studies on the Structure-Activity Relationships of Site-Specific “Glycine-Lysine” Motif Insertions” (Antibiotics, 2022).

One experiment concerns C. albicans NCTC 10231. It is filed as cell-based, Candida albicans. The protocol:
(§1) The inhibition of representative microorganisms by peptides was evaluated by the modified broth dilution technique. The microorganisms included Candida albicans (C. albicans, NCTC 10231), Enterococcus faecalis (E. faecalis, NCTC 12697), Staphylococcus aureus (S. aureus, NCTC 10788), Klebsiella pneumoniae (K. pneumoniae, ATCC 43816), Methicillin-resistant Staphylococcus aureus (MRSA, ATCC 12493), Pseudomonas aeruginosa (P. aeruginosa, ATCC 27853), and Escherichia coli (E. coli, NCTC 10418).
(§2) Firstly, the selected microorganism was incubated in conical flasks with 100 mL Mueller Hinton broth (MHB) overnight. Then, the bacterial solution was sub-cultured in 20 mL MHB until it reached the logarithmic growth phase. Meanwhile, the peptide solution was prepared. The peptide was dissolved into 128 × 10^2 μM solution with phosphate-buffered saline (PBS) and then double-diluted into 64, 32, 16, 8, 4, 2, and 1 × 10^2 μM. Each sample solution and positive control ([…] Norfloxacin) was added to 96-well plates and divided into five replicates, 1 μL per well. The blank control was 100 µL MHB, and the growth control was 100 µL bacterial solutions. When the optical density (OD) value corresponding to the microbial concentration reached the value (Gram-positive bacteria: 0.23; Gram-negative bacteria: 0.4; fungi: 0.15) in their logarithmic growth phase, the microorganisms were diluted to the required concentration with MHB (Gram-negative and Gram-positive bacteria: 5 × 10^5 CFU/mL; fungi: 1 × 10^6 CFU/mL).
(§3) The diluted bacterial solution was then added to the 96-well plate at 99 µL per well. The plate was incubated at 37 °C and observed the next day. The MIC was the corresponding lowest peptide concentration without microbial growth. The absorbance of the 96-well plate at 550 nm was measured by Synergy HT Microplate Spectrophotometer (Biotech, Minneapolis, MN, USA), and the obtained values were quantitatively analyzed by Prism 7 software. Subsequently, the concentrations corresponding to the clear solution were removed from the 96-well plate in 10 µL and dropped onto the solidified MHA. The Petri dishes with MHA were cultured overnight, observed and the minimum peptide concentration without colonies was MBC.

The test system of experiment [1] is E. coli NCTC 10418 biofilm. It is filed as cell-based, Escherichia coli. As to conditions: NCTC 10418, 24 h. The protocol: (§4) As previously described, the MBIC and MBEC of the peptides against bacteria were determined. Staphylococcus aureus (S. aureus, NCTC 10788) and Escherichia coli (E. coli, NCTC 10418) was selected as representative strains. For the MBIC assay, the cultures were sub-cultured to their logarithmic growth phases. The diluted bacterial suspension was incubated with the peptide solution overnight in a 96-well plate. The resulting biofilm was washed with PBS solution, fixed with methanol, and dried. The biofilm was then stained with 0.1% (w/v) crystal violet, washed again with PBS, and dissolved in 30% acetic acid. The absorbance of the solution in each well at 595 nm was counted by the Synergy HT Microplate Spectrophotometer (Biotech, Minneapolis, MN, USA). Compared with the negative control, the lowest concentration that inhibits biofilm formation was MBIC. For the determination of MBEC, the diluted bacterial solution was incubated in the 96-well plate for 24 h, with 100 µL per well. Then, the biofilm was washed and re-incubated with 100 µL peptide-medium solution. After 24 h, the biofilm was again washed, stained, and dissolved as in the MBIC assay. Each well was detected at 595 nm by the same plate reader in MBIC. Compared with the negative control, the lowest concentration to eliminate biofilm was MBEC.

In the next experiment the test system is E. coli NCTC 10418. Type of experiment: cell-based, Escherichia coli. On the procedure:
as §1, §2, §3

The subject of a further experiment is MRSA NCTC 12493. Type of experiment: cell-based, Methicillin-resistant Staphylococcus aureus.
Experiment [2] has as its system S. aureus NCTC 10788. Type of experiment: cell-based, Staphylococcus aureus. The protocol: as §1, §2, §3
For the next experiment, the system named is K. pneumoniae ATCC 43816. It is filed as cell-based, Klebsiella pneumoniae. The protocol:
as §1, §2, §3

A further experiment relates to E. faecalis NCTC 12697. Type of experiment: cell-based, Enterococcus faecalis. On the procedure:
as §1, §2, §3

For experiment [3], the system named is S. aureus NCTC 10788 biofilm. It is filed as cell-based, Staphylococcus aureus. The conditions noted are these: NCTC 10788, 24 h. On the procedure:
as §4

The subject of a further experiment is P. aeruginosa ATCC 27853. Type of experiment: cell-based, Pseudomonas aeruginosa. The protocol: as §1, §2, §3
Experiment [4] has as its system S. aureus NCTC 10788. Type of experiment: cell-based, Staphylococcus aureus. On the procedure: As mentioned in the previous study, the salt and pH sensitivities of AMPs exposed to physiological concentrations of salts or non-neutral environments were tested. MHB containing different ion concentrations (150 mM NaCl, 1 mM MgCl2, and 4 μM FeCl3) and MHB with pH 6.0 and pH 8.0 were prepared. The selected microorganism Staphylococcus aureus (S. aureus, NCTC 10788) was incubated overnight in the prepared medium, sub-cultured to the logarithmic phase, and then diluted to 5 × 10^5 CFU/mL. The subsequent steps were carried out as the MIC/MBC assay.
This is another data set of the same source.

In brackets after ≈: the same amount, converted by molar mass. Read-outs that look alike come from different tables or passages of the source. Where a SMILES comes first, the peptide text is derived from it.

`CC[C@H](C)[C@H](NC(=O)[C@H](C)NC(=O)[C@H](CCC(=O)O)NC(=O)[C@H](CCC(N)=O)NC(=O)[C@@H](NC(=O)[C@H](CC(C)C)NC(=O)[C@H](CCCCN)NC(=O)CNC(=O)[C@H](C)NC(=O)[C@H](CC(C)C)NC(=O)[C@@H](N)Cc1ccccc1)[C@@H](C)CC)C(=O)N[C@@H](C)C(=O)N[C@@H](CCCCN)C(=O)N[C@@H](CC(C)C)C(=O)N[C@@H](CCCCN)C(N)=O` [QUB-1643] (H-FLAGKLIQEAIAKLK-NH2): the MBC in the experiment on C. albicans NCTC 10231 is 128 µM; in the experiment with E. coli NCTC 10418, > 128 µM; with MRSA NCTC 12493 it was 128 µM (≈ 210 µg/mL); in the experiment on S. aureus NCTC 10788 [2], 64 µM; in the experiment with K. pneumoniae ATCC 43816 it was > 128 µM; in the experiment with E. faecalis NCTC 12697 it was > 128 µM. Further, in the experiment with P. aeruginosa ATCC 27853, the MBC was > 128 µM. Besides, the MIC – broadly, the lowest concentration that inhibits growth of the organism – is 64 µM in the experiment with C. albicans NCTC 10231; 128 µM in the experiment on E. coli NCTC 10418; 64 µM (≈ 105 µg/mL) in the experiment on MRSA NCTC 12493; 32 µM with S. aureus NCTC 10788 [2]; > 128 µM in the experiment with K. pneumoniae ATCC 43816; 128 µM in the experiment on E. faecalis NCTC 12697. In addition, in the experiment with P. aeruginosa ATCC 27853, the MIC is > 128 µM. For the same compound, the values for the MBEC in [1] and in experiment [3] were >128/>128 µM and 128/>128 µM, respectively. Moreover, the results for the MBIC in experiment [1] and in experiment [3] were >128/>128 µM and 128/>128 µM, respectively.
As for `CC[C@H](C)[C@H](NC(=O)[C@H](C)NC(=O)[C@H](CCCCN)NC(=O)CNC(=O)[C@@H](NC(=O)[C@H](CC(C)C)NC(=O)[C@H](C)NC(=O)[C@H](CC(C)C)NC(=O)[C@H](C)NC(=O)[C@H](CC(C)C)NC(=O)[C@@H](N)Cc1ccccc1)[C@@H](C)CC)C(=O)N[C@@H](C)C(=O)N[C@@H](CCCCN)C(=O)N[C@@H](CC(C)C)C(=O)N[C@@H](CCCCN)C(N)=O` [QUB-1570] (H-FLALALIGKAIAKLK-NH2), the MBC in the experiment on C. albicans NCTC 10231 came out at 8 µM; in the experiment on E. coli NCTC 10418, 32 µM; against MRSA NCTC 12493, 8 µM (≈ 12.6 µg/mL); in the experiment with S. aureus NCTC 10788 [2] it was 8 µM; in the experiment with K. pneumoniae ATCC 43816 it was 32 µM; with E. faecalis NCTC 12697, 8 µM. In the experiment on P. aeruginosa ATCC 27853, the MBC was > 128 µM. The MIC in the experiment on C. albicans NCTC 10231 came out at 8 µM; in the experiment on E. coli NCTC 10418 it was 16 µM; against MRSA NCTC 12493 it was 4 µM (≈ 6.28 µg/mL); in the experiment with S. aureus NCTC 10788 [2] it was 2 µM; in the experiment with K. pneumoniae ATCC 43816, 32 µM; with E. faecalis NCTC 12697, 8 µM. In addition, the MIC in the experiment with P. aeruginosa ATCC 27853 was > 128 µM. For the same compound, in [1], the MBEC is recorded as 64 µM. Moreover, the MBIC in experiment [1] was determined as 32 µM; in [3], 4 µM.
`CC[C@H](C)[C@H](NC(=O)[C@H](C)NC(=O)[C@H](CCC(=O)O)NC(=O)[C@H](CCC(N)=O)NC(=O)[C@H](CCCCN)NC(=O)CNC(=O)[C@H](C)NC(=O)[C@H](CC(C)C)NC(=O)[C@H](C)NC(=O)[C@H](CC(C)C)NC(=O)[C@@H](N)Cc1ccccc1)C(=O)N[C@@H](C)C(=O)N[C@@H](CCCCN)C(=O)N[C@@H](CC(C)C)C(=O)N[C@@H](CCCCN)C(N)=O` [QUB-1599] (H-FLALAGKQEAIAKLK-NH2): the MBC against S. aureus NCTC 10788 [4], in the experiment on C. albicans NCTC 10231, with E. coli NCTC 10418, in the experiment on MRSA NCTC 12493, in the experiment on S. aureus NCTC 10788 [2] and in the experiment on K. pneumoniae ATCC 43816 was > 128 µM throughout. The MBC in the experiment with E. faecalis NCTC 12697 and in the experiment on P. aeruginosa ATCC 27853 was > 128 µM in each case. Besides, the MIC in the experiment with S. aureus NCTC 10788 [4], with C. albicans NCTC 10231, in the experiment with E. coli NCTC 10418, in the experiment with MRSA NCTC 12493, in the experiment on S. aureus NCTC 10788 [2] and in the experiment with K. pneumoniae ATCC 43816 was > 128 µM each time. Also, the MIC with E. faecalis NCTC 12697 and in the experiment with P. aeruginosa ATCC 27853 was > 128 µM throughout. For the same compound, the MBEC in experiment [1] and in [3] was >128/>128 µM throughout. The MBIC in experiment [1] and in experiment [3] was >128/>128 µM in each case.
For `CC[C@H](C)[C@H](NC(=O)[C@H](C)NC(=O)[C@H](CCCCN)NC(=O)[C@@H]1CCCN1C(=O)[C@@H](NC(=O)[C@H](CC(C)C)NC(=O)[C@H](C)NC(=O)[C@H](CC(C)C)NC(=O)[C@H](C)NC(=O)[C@H](CC(C)C)NC(=O)[C@@H](N)Cc1ccccc1)[C@@H](C)CC)C(=O)N[C@@H](C)C(=O)N[C@@H](CCCCN)C(=O)N[C@@H](CC(C)C)C(=O)N[C@@H](CCCCN)C(N)=O` [QUB-1609] (H-FLALALIPKAIAKLK-NH2), the MBC in the experiment on C. albicans NCTC 10231 is 32 µM; in the experiment with E. coli NCTC 10418, 64 µM; with MRSA NCTC 12493, 16 µM (≈ 25.7 µg/mL); with S. aureus NCTC 10788 [2] it was 32 µM; in the experiment on K. pneumoniae ATCC 43816 it was > 128 µM; with E. faecalis NCTC 12697, 64 µM. In addition, the MBC in the experiment with P. aeruginosa ATCC 27853 was > 128 µM. The MIC was 16 µM with C. albicans NCTC 10231; 8 µM in the experiment with E. coli NCTC 10418; 8 µM (≈ 12.9 µg/mL) with MRSA NCTC 12493; 8 µM with S. aureus NCTC 10788 [2]; 128 µM in the experiment with K. pneumoniae ATCC 43816; 16 µM in the experiment on E. faecalis NCTC 12697. In addition, the minimal inhibitory concentration (MIC) in the experiment on P. aeruginosa ATCC 27853 is > 128 µM. The MBEC in experiment [1] and in [3] was 128 µM each time. For the same compound, the results for the MBIC in experiment [1] and in [3] were 64 µM and 16 µM, respectively.
For the compound `CC[C@H](C)[C@H](NC(=O)[C@H](C)NC(=O)CNC(=O)CNC(=O)[C@@H](NC(=O)[C@H](CC(C)C)NC(=O)[C@H](C)NC(=O)[C@H](CC(C)C)NC(=O)[C@H](C)NC(=O)[C@H](CC(C)C)NC(=O)[C@@H](N)Cc1ccccc1)[C@@H](C)CC)C(=O)N[C@@H](C)C(=O)N[C@@H](CCCCN)C(=O)N[C@@H](CC(C)C)C(=O)N[C@@H](CCCCN)C(N)=O` [QUB-1498] (H-FLALALIGGAIAKLK-NH2), the MBC in the experiment on C. albicans NCTC 10231 is > 128 µM; in the experiment with E. coli NCTC 10418 it was > 128 µM; against MRSA NCTC 12493, > 128 µM; with S. aureus NCTC 10788 [2] it was 16 µM; in the experiment on K. pneumoniae ATCC 43816, > 128 µM; in the experiment with E. faecalis NCTC 12697 it was 64 µM. For the same compound, the MBC in the experiment on P. aeruginosa ATCC 27853 is > 128 µM. Moreover, the MIC with C. albicans NCTC 10231 is 32 µM; in the experiment with E. coli NCTC 10418, 32 µM; against MRSA NCTC 12493, 128 µM (≈ 192 µg/mL); in the experiment with S. aureus NCTC 10788 [2] it was 16 µM; in the experiment with K. pneumoniae ATCC 43816, > 128 µM; with E. faecalis NCTC 12697, 32 µM. Further, in the experiment on P. aeruginosa ATCC 27853, the MIC was > 128 µM. The MBEC in [1] is recorded as >128/>128 µM; in experiment [3], 128 µM. For the same compound, in experiment [1], the MBIC was >128/>128 µM.
